Measurements reported in patent publication US7304077B2, “Chemical compounds” (AstraZeneca AB, priority 2001, dated 2007).

melting point	Compound
218 °C	COc1cccc(C(=O)N(C)CCN2CCC(Oc3ccc(F)c(F)c3)CC2)c1.Cl
146 to 147 °C	N#Cc1ccccc1C(=O)NCCN1CCC(Oc2ccc(F)c(F)c2)CC1 [Example 41, 2-cyano-N-{2-[4-(3,4-difluorophenoxy)-1-piperidinyl]ethyl}benzamide]
114 to 116 °C	O=C(Cn1nnc(N2CCCC2)n1)NCCN1CCC(Oc2ccc(Cl)c(Cl)c2)CC1 [Compound 34 of Table II, N-{2-[4-(3,4-dichlorophenoxy)-1-piperidinyl]ethyl}-2-[5-(1-pyrrolidinyl)-2H-tetraazol-2-yl]acetamide]
150 to 151 °C	O=C(NCCN1CCC(Oc2ccc(Cl)c(Cl)c2)CC1)c1cn2ccccc2n1 [Example 30, N-{2-[4-(3,4-dichlorophenoxy)-1-piperidinyl]ethyl}imidazo[1,2-a]pyridine-2-carboxamide]
183 to 184 °C	Cc1cc(OC2CCN(CCNC(=O)c3ccc(-n4cccn4)nc3)CC2)ccc1Cl [Example 38, N-{2-[4-(4-chloro-3-methylphenoxy)-1-piperidinyl]ethyl}-6-(1H-pyrazol-1-yl)nicotinamide]
108 to 109 °C	CS(=O)(=O)c1ccc(C(=O)NCCN2CCC(Oc3ccc(F)c(F)c3)CC2)c(Cl)c1 [Example 42, 2-chloro-N-{2-[4-(3,4-difluorophenoxy)-1-piperidinyl]ethyl}-4-(methylsulfonyl)benzamide]
109 to 110 °C	O=C(NCCN1CCC(Oc2ccc(F)cc2Cl)CC1)c1ccc(-n2cccn2)nc1 [Example 32, N-{2-[4-(2-chloro-4-fluorophenoxy)-1-piperidinyl]ethyl}-6-(1H-pyrazol-1-yl)nicotinamide]
154 to 155 °C	O=C(NCCN1CCC(Oc2ccc(Cl)c(Cl)c2)CC1)c1ccc(-n2cccn2)nc1 [Example 28, N-{2-[4-(3,4-dichlorophenoxy)-1-piperidinyl]ethyl}-6-(1H-pyrazol-1-yl)nicotinamide]
106 to 107 °C	N#Cc1cccc(C(=O)NCCN2CCC(Oc3ccc(F)c(F)c3)CC2)c1 [Example 43, 3-cyano-N-{2-[4-(3,4-difluorophenoxy)-1-piperidinyl]ethyl}benzamide]
171 to 172 °C	Cc1c(Cl)ccc(OC2CCN(CCNC(=O)c3ccc(S(C)(=O)=O)cc3)CC2)c1Cl [Example 34, N-{2-[4-(2,4-dichloro-3-methylphenoxy)-1-piperidinyl]ethyl}-4-(methylsulfonyl)benzamide]
150 to 151 °C	CS(=O)(=O)Nc1cccc(C(=O)NCCN2CCC(Oc3ccc(Cl)c(Cl)c3)CC2)c1 [Compound 24 of Table I, N-{2-[4(3,4-dichlorophenoxy)-1-piperidinyl]ethyl}-3-[(methylsulfonyl)amino]benzamide]
161 to 162 °C	O=C(NCCN1CCC(Oc2ccc(Cl)c(Cl)c2)CC1)c1nnc(Nc2ccccc2Cl)o1 [Example 31, 5-(2-chloroanilino)-N-{2-[4-(3,4-dichlorophenoxy)-1-piperidinyl]ethyl}-1,3,4-oxadiazole-2-carboxamide]
219 °C	CS(=O)(=O)c1cccc(C(=O)NCCN2CCC(Oc3ccc(Cl)c(Cl)c3)CC2)c1.Cl
50 to 51 °C	CS(=O)(=O)c1cccc(C(=O)NCCN2CCC(Oc3ccc(F)cc3Cl)CC2)c1 [Example 33, N-{2-[4-(2-chloro-4-fluorophenoxy)-1-piperidinyl]ethyl}-3-(methylsulfonyl)benzamide]
168 to 169 °C	NS(=O)(=O)c1cccc(C(=O)NCCN2CCC(Oc3ccc(Cl)c(Cl)c3)CC2)c1 [Example 22, 3-(aminosulfonyl)-N-{2-[4-(3,4-dichlorophenoxy)-1-piperidinyl]ethyl}benzamide]
71 to 72 °C	Cc1c(Cl)ccc(OC2CCN(CCNC(=O)c3ccccc3S(C)(=O)=O)CC2)c1Cl [Example 36, N-{2-[4-(2,4-dichloro-3-methylphenoxy)-1-piperidinyl]ethyl}-2-(methylsulfonyl)benzamide]
212 °C	CS(=O)(=O)c1cccc(C(=O)NCCCN2CCC(Oc3ccc(Cl)c(Cl)c3)CC2)c1.Cl
80 to 81 °C	NS(=O)(=O)c1cc(C(=O)NCCN2CCC(Oc3ccc(F)c(F)c3)CC2)ccc1Cl [Example 40, 3-(aminosulfonyl)-4-chloro-N-{2-[4-(3,4-difluorophenoxy)-1-piperidinyl]ethyl}benzamide]
177 to 178 °C	Cc1c(Cl)ccc(OC2CCN(CCNC(=O)c3ccc(S(C)(=O)=O)s3)CC2)c1Cl [Example 35, N-{2-[4-(2,4-dichloro-3-methylphenoxy)-1-piperidinyl]ethyl}-5-(methylsulfonyl)-2-thiophenecarboxamide]
112 to 114 °C	CS(=O)(=O)Cc1cccc(C(=O)NCCN2CCC(Oc3ccc(Cl)c(Cl)c3)CC2)c1 [Compound 5 of Table I, N-{2-[4-(3,4-dichlorophenoxy)-1-piperidinyl]ethyl}-3-[(methylsulfonyl)methyl]benzamide]
179 to 181 °C	CS(=O)(=O)Cc1ccc(C(=O)NCCN2CCC(Oc3ccc(Cl)c(Cl)c3)CC2)cc1 [Compound 7 of Table I, N-{2-[4-(3,4-dichlorophenoxy)-1-piperidinyl]ethyl}-4-[(methylsulfonyl)methyl]benzamide]
142 to 143 °C	CS(=O)(=O)c1ccc(C(=O)NCCN2CCC(Oc3ccc(Cl)c(Cl)c3)CC2)s1 [Example 27, N-{2-[4-(3,4-dichlorophenoxy)-1-piperidinyl]ethyl}-5-(methylsulfonyl)-2-thiophenecarboxamide]
123 to 124 °C	Cc1cc(OC2CCN(CCNC(=O)c3ccc(S(C)(=O)=O)cc3)CC2)ccc1Cl [Example 37, N-{2-[4-(4-chloro-3-methylphenoxy)-1-piperidinyl]ethyl}-4-(methylsulfonyl)benzamide]
100 to 101 °C	CS(=O)(=O)c1ccc(C(=O)NCCN2CCC(Oc3ccc(Cl)c(Cl)c3)CC2)cc1 [Example 29, N-{2-[4-(3,4-dichlorophenoxy)-1-piperidinyl]ethyl}-4-(methylsulfonyl)benzamide]
115 to 116 °C	CS(=O)(=O)Cc1ccc(C(=O)NCCN2CCC(Oc3ccc(F)c(F)c3)CC2)cc1 [Example 44, N-{2-[4-(3,4-difluorophenoxy)-1-piperidinyl]ethyl}-4-[(methylsulfonyl)methyl]benzamide]
169 to 217 °C	CCn1cc(C(=O)NCCN2CCC(Oc3ccc(Cl)c(Cl)c3)CC2)c(=O)c2ccc(C)nc21 [Example 23, N-{2-[4-(3,4-dichlorophenoxy)-1-piperidinyl]ethyl}-1-ethyl-7-methyl-4-oxo-1,4-dihydro[1,8]naphthyridine-3-carboxamide]
